Test results from patent US20100311726A1, “REDUCTION OF BETA-AMYLOID LEVELS BY TREATMENT WITH THE SMALL MOLECULE DIFFERENTIATION-INDUCING FACTOR” (priority 2007, published 2010).

Experiments:
[1] = test system: APP phosphorylation on residue T668; assay: APP T668 phosphorylation by western blot; assay type: cell-based, human; conditions: CHO-7W and CHO-CAB; DAPT alone, or DAPT with DIF-1 (30 μM)
Method: Next, whether or not DIF-1 treatment affected the degree of T668 phosphorylation was examined by western blot (FIG. 11). Briefly, effects of DIF-1 on APP T668 phosphorylation were compared between vehicle-treated control and 250 nM of DAPT identically in each cell line. Western analysis of 15 μg of total protein was probed overnight at 4° C. with anti-APP Cterminal antibody (C66-676-695) (1:5000) and then detected on film using ECL and HRP-conjugated secondary antibodies (1:5000). […] This band has also been detected in other CHO lines where APP expression is high (˜3 fold) and by different C-terminal APP antibodies (Ab8717-676-695; except 6E10 which recognizes the N-terminal residues 1-17 of the Aβ sequence. For FIG. 11A, cells were treated with DAPT, and DAPT+DIF then were probed with anti-APP antibody (C66). For FIG. 11B, CHO-7W cells were treated with DAPT, and DAPT+DIF, and then probed with polyclonal anti-P668 APP antibody (1:1000) overnight at 4° C. in 5% BSA. After washing, cells were probed with a rabbit HRP-conjugated secondary antibody (1:5000) in BSA for 1 hour at room temperature and signals were detected on film using ECL. FIG. 11C represents CHO-CAB cells and FIG. 11D represents H4 cells expressing APP^SW.

APPT668A and APPT668E = assay: APP processing in CHO cells expressing APP T668A or T668E; assay type: cell-based, human; conditions: 30 μM
Excerpt: To assess whether or not the decrease in phosphorylated APP seen in DIF-1 treated cells contributed mechanistically to the reduction of maturation, secretion and metabolic processing of APP^751, mutants were generated using APP^751 in which T724 (APP^751 numbering) was mutated to either an alanine residue such that phosphorylation could not occur, or a glutamic acid residue that should mimic constitutive phosphorylation of APP. APP^751, Isoform B, NM_201413 was used as a template. We essentially used Stratagene's QuickChange® Site-Directed Mutagenesis Kit (Catalog #200518) to create the desired mutations as recommended by the manufacturer with the following exceptions. The APP^751 codon for threonine 724 (ACC) was mutated to code for Alanine (A) (GCC) and Glutamic Acid (E) (GAA), respectively. The following mutagenesis primers were used to create each mutation. […]
Cells were diluted and plated in multiple 10 cm tissue culture dishes and allowed to recover overnight in Dulbecco's modified Eagle's medium containing 4.5 mg/ml D-glucose supplemented with 10% fetal bovine serum and 100 units/ml penicillin, 100 μg/ml streptomycin, 2 mM L-glutamine (Sigma) at 37° C. in a 5% CO2 atmosphere. […] Protein extracts were assessed for APPT724A and APPT724E expression levels compared to naïve cells by western blot using polyclonal anti-APP C-terminal antibodies (C66). […]

**Q.** With `CCCCCC(=O)c1c(O)c(Cl)c(OC)c(Cl)c1O` [DIF-1, 1-[3,5-dichloro-2,6-dihydroxy-4-methoxyphenyl]-1-hexanone] as the compound, how does the “amount of T668 phosphorylated APP CTFs” value [1] read?
**A.** large reduction in the amount of T668 phosphorylated APP CTFs

**Q.** And the “effect of DIF-1 on APP maturation and CTFs in T668A or T668E mutant APP” value (APPT668A and APPT668E)?
**A.** completely abolished the effect of DIF-1 on APP maturation and the reduction of both αCTF and βCTF levels
